According to patent US20260167679A1, “FUSION PROTEIN TARGETING MITOCHONDRIA, METHOD OF MAKING AND USE THEREOF” (UNIVERSITY OF ROCHESTER, priority 2020, published 2026):

Key:
Type in all cases: in vivo, Caenorhabditis elegans
C. elegans [1] = test: ETC inhibitor assays, survival of animals
Experimental: Experiments were performed on at least three separate days, using 15-100 young adult animals per plate. Seeded plates were supplemented with rotenone (50 μM final concentration), antimycin A (50 μM final concentration), or oligomycin A (31 μM final concentration) 24 h before animals were transferred onto them. For azide toxicity, animals were placed in M9 buffer with 250 mM azide. Control plates were kept in the dark, and experimental plates were exposed to 1 Hz light (Quantum LED, 0.02 mW/mm^2) for the duration of the experiment. For all toxins, animals that were moving or those that moved in response to a light touch to the head were scored as alive. For rotenone, surviving animals were scored after 5 h. For antimycin A, animals were scored 16 h after exposure. For azide, animals were exposed for 1 h in M9 and allowed to recover for 1 h on a seeded culture plate and then survival was scored. Azide experimental plates were exposed to light (XCite LED, 0.19 mW/mm^2) for the duration of azide treatment and recovery. […]. For oligomycin A, animals were scored 18 h after exposure.
(§1) Experiments were carried out using a hypoxic chamber (Coy Laboratory Products, 5%/95% H2/N2 gas, palladium catalyst) at 26° C. with 50-100 animals per plate. O2 was <0.01%. Hypoxic preconditioning (PC) duration was 4 h, and control animals were incubated at 26° C. in room air for the same time. 1 Hz illumination (Quantum LED, 0.02 mW/mm^2) was carried out during PC period or during the hypoxic period. Hypoxic exposure was for 18.5, 21 h after PC. Twenty-four hours after hypoxia exposure, animals that were moving or those that moved in response to a light touch to the head were scored as alive. Data from days where PC was at least 15% effective for both +ATR and −ATR were used. Animals supplemented with ATR were allowed to lay eggs onto plates with no ATR that were subsequently used for HR experiments to minimize confounding effects of ATR. ATR from the parent animal was sufficient to provide active mtON in progeny as tested by the azide toxin assay described above. […] FCCP dissolved in ethanol was deposited onto seeded NGM plates.

C. elegans [2] = test: Hypoxia and reoxygenation with hypoxic preconditioning; settings: +ATR, baseline survival, n=12 independent experiments
Experimental: as §1

C. elegans [3] = test: Lifespan of mtON-expressing worms
Source text: Light treatment began at day 1 of adulthood for all experiments, a, Survival curves of mtON-expressing animals (extrachromosomal array). […] One-way ANOVA with Tukey's test; n=30 animals for day 4 conditions and 40 animals for day 10. […] The dotted arrow represents the molecular mechanisms to be investigated that link Δψm to aged physiology.
A) survival curve with the same conditions as FIG. 15B, but with light intensity (0.005 mW/cm2) below the threshold for mtON activation (0.01 mW/cm2). […] B) Survival curves of mtON-expressing animals versus mtON-expressing animals in a long-lived genetic background containing a constitutively active AMPK mutation.
Strain APW32 expresses mtON as an extrachromosomal array (mtON ext. chr. array), and strain APW273 expresses mtON in single copy through CRISPR/Cas9 genome integration (mtON CRISPR). See methods section for genotype details. Light intensity was varied to maintain temperature as best as possible, and proximal temperature readings directly adjacent to assay plates are reported to show local temperature variability from different incubators and from different light sources. All incubators were set to 20° C.

SMILES: CC1=C(/C=C/C(C)=C/C=C/C(C)=C/C=O)C(C)(C)CCC1 [ATR, all trans-retinal, reference compound]
- survival (C. elegans [1]; 50 μM rotenone for 5 hours, +ATR −light (ATR alone)): protective
- survival (C. elegans [1]; azide toxin assay, progeny of ATR-supplemented parents, +ATR −light): 27.5%
- survival after hypoxia and reoxygenation (baseline) (C. elegans [2]): 49.7+/−20.3%
- lifespan (C. elegans [3]; ATR and light in wild-type animals): did not affect lifespan
- lifespan or physiology (C. elegans [3]; ATR supplementation alone): does not affect lifespan or physiology

SMILES: N#CC(C#N)=NNc1ccc(OC(F)(F)F)cc1 [FCCP, carbonyl cyanide p-(trifluoromethoxy)phenylhydrazone, reference compound]
- lifespan (C. elegans [3]; FCCP on its own): no effect on lifespan
